The target in test [1] is T1, D2 receptors (Bos taurus, UniProt P20288).
T1 construct: homogenized and washed membrane preparations from bovine anterior pituitary; from tissue; host or cells: bovine anterior pituitary membranes
Briefly: D2 activity - competition for 3H-spiroperidol binding in bovine anterior pituitary membranes. The following applies: for Kb: competition with 3H-spiroperidol (approximately .25 nM), bovine anterior pituitary membranes, figure in parentheses = number of tests, read-out: D2 (KBind, KB); for D2 to D1 ratios: selectivity ratio from the D1 and D2 binding data of Tables I and II, n to 1 = D2 selective, 1 to n = D1 selective. The procedure: A) D2 Activity - Competition for ^3H-Spiroperidol in Bovine Anterior Pituitary Tissue. Test Procedure
The assay was performed using homogenized and washed membrane preparations from bovine anterior pituitary. Incubation proceeded for 20 minutes at 37° in 50 mM Tris-HCI, pH 7.4, containing 10 mM magnesium sulfate, 2 mM ethylenediamine tetra-acetic acid and 0.1 % ascorbate. The membrane- bound radioactivity was trapped by rapid filtration over glass fiber (GF/C) filters. In each experiment, the amount of ^3H-spiroperidol bound was determined in the absence (total) and presence (non-specific) of 10^-6M (+)-butaclamol, the difference yielding specific ^3H-spiroperidol binding. The ability of each compound to compete with ^3H-spiroperidol (approximately .25 nM) was tested at concentrations of 10-^7 and 10-^5.

The target in test [2] is T2, D1 receptors (Rattus norvegicus, UniProt P18901).
T2 construct: homogenized and washed membrane preparations from rat caudate nuclei; from tissue; host or cells: rat caudate nuclei (striatum) membranes
In words: D1 activity - competition for 3H-fenoldopam binding in rat striatum (caudate) membranes. The procedure: B) D1 Activity - Competition for ^3H-Fenoldopam in Rat Striatum Tissue. Test Procedure
The assay was performed using homogenized and washed membrane preparations from rat caudate nuclei. Tissues were preincubated for 15 min at 37° in 50 mM Tris-HCI, pH 7.4, 10 mM magnesium sulfate, 2 mM ethylenediamine tetra-acetic acid and 0.1 % ascorbate. The binding assay was then carried out in the above buffer also containing 10 µm pargyline, ^3H-fenoldopam and test compounds. The membrane- bound radioactivity was trapped by rapid filtration over glass fiber (GF/C) filters. In each experiment the amount of ^3H-fenoldopam bound was determined in the absence (total) and presence (non-specific) of 10^-6M (+)-butaclamol, the difference yielding specific ^3H-fenoldopam binding. The ability of each compound to compete with ^3H-fenoldopam (approximately 2.0 nM) was tested at concentrations of 10-^7 and 10^-6M.

Test [3] concerns a2. In words: Clonidine binding protocol (a2 activity).
The test system of test [4] is rabbit ear artery. In words: Standard rabbit ear artery protocol for pre-junctional dopaminergic activity. As to conditions: ED50 for Compound D.
Test [5] relates to spontaneous hypertensive rat. In words: Natriuretic activity in the spontaneous hypertensive rat protocol. Type of test: in vivo. The following applies: at a hypotensive dose (Compound G: 3.12 mg/kg i.p.).
The mark [6] stands for this setting: competition with 3H-fenoldopam (approximately 2.0 nM), rat caudate membranes, figure in parentheses = number of tests, read-out: D1 (KBind, KB).

Like-named read-outs stand apart in the source and are kept apart here. Some results are limits rather than exact numbers.

T1 sequence (P20288 whole entry): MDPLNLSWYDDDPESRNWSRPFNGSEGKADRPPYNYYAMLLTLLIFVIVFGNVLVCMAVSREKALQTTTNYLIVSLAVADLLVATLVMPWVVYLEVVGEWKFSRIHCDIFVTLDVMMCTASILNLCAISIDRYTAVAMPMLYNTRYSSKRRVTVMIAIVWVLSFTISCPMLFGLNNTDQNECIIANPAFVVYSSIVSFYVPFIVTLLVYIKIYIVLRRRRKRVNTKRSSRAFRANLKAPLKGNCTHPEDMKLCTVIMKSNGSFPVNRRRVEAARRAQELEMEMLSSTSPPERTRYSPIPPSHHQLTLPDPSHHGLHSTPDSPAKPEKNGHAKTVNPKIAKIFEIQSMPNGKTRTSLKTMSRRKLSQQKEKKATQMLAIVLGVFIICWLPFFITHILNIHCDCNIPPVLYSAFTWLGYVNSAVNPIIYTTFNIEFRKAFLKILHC
T2 sequence (P18901 whole entry): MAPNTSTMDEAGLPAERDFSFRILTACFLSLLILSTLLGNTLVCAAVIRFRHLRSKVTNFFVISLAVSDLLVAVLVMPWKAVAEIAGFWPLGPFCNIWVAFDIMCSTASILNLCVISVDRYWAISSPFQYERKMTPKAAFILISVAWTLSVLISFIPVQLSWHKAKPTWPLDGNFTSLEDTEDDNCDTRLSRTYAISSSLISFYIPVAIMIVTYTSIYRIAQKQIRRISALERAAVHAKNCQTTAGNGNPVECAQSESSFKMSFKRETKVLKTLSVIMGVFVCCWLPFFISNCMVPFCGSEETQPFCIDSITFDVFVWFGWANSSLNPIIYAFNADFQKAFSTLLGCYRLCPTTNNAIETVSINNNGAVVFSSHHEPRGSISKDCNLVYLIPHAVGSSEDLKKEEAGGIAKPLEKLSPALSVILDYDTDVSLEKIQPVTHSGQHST

In the case of `Oc1ccc(CCNC2CCc3cc(O)c(O)c(Cl)c3C2)cc1` (stereo not shown) [B, 8-Chloro-6,7-dihydroxy-2-(4-hydroxyphenethylamino)tetralin], the Kb in test [1] turned out to be 405 nM; in test [2] (setting [6]), 1450 nM.

As to `NC1CCc2cc(O)c(O)c(F)c2C1` (stereo not shown) [Compound E, 8-Fluoro-6,7-dihydroxy-2-aminotetralin], the a2 activity entry in test [3] is “demonstrated a2 activity”. The half-maximal effective concentration (EC50) – broadly, the concentration needed to bring the measured effect to its halfway point – in test [4] is 5 nM. Moreover, in test [1], the Kb was 1270 nM and the “D2 to D1 ratios” value is 1 to 27. Also, in test [2] (setting [6]), the Kb came out at 62 nM.

For the molecule `NC1CCc2c(cc(O)c(O)c2Cl)C1` (stereo not shown) [Compound F, 5-Chloro-6,7-dihydroxy-2-aminotetralin], in test [3], the a2 activity entry was “demonstrated a2 activity”. Besides, the EC50 in test [4] came to 50 nM. The Kb in test [1] stood at 470 nM; in test [2] (setting [6]), 640 nM.

Regarding `NC1CCc2cc(F)c(O)cc2C1` (stereo not shown) [L, reference compound], the Kb in test [1] was determined as 660 nM; in test [2] (setting [6]), 370 nM.

Consider `NC1CCc2c(cc(O)c(O)c2F)C1` (stereo not shown) [Compound D, 5-Fluoro-6,7-dihydroxy-2-aminotetralin], for which the a2 activity entry in test [3] is given as “demonstrated a2 activity”. In test [4], this molecule returned an EC50 of 2.14 nM. Moreover, in test [1], the Kb stood at 520 nM and the “D2 to D1 ratios” value is on record as 1 to 7. In addition, the Kb in test [2] (setting [6]) turned out to be 72 nM.

On to `CCCN(CCC)C1CCc2cc(O)c(O)c(Cl)c2C1` (stereo not shown) [C, 8-Chloro-6,7-dihydroxy-2-di-n-propyl aminotetralin], for which the Kb in test [1] was determined as 240 nM; in test [2] (setting [6]), 620 nM.

Regarding `NC1CCc2cc(O)c(O)c(Cl)c2C1` (stereo not shown) [Compound G, 8-Chloro-6,7-dihydroxy-2-aminotetralin], in test [3], the a2 activity entry is reported as “demonstrated a2 activity”. This molecule also displayed an EC50 in test [4] of 513 nM. Also, the Kb in test [1] worked out at 3160 nM; in test [2], 43 nM. The “D2 to D1 ratios” value in test [1] is given as 1 to 80. Also, the natriuretic activity result in test [5] is “potent natriuretic activity”.

With `CCCN(CCc1ccc(O)cc1)C1CCc2cc(O)c(O)c(Cl)c2C1` (stereo not shown) [A, 8-Chloro-6,7-dihydroxy-2-[N-(n-propyl)-N-(4-hydroxyphenethyl)-amino] tetralin], the Kb in test [1] came out at 33 nM; in test [2] (setting [6]) it was 270 nM.

For the molecule `NC1CCc2cc(O)c(O)cc2C1` (stereo not shown) [ADTN, 6,7-Dihydroxy-2-aminotetralin, reference compound], the a2 activity entry in test [3] is listed as “demonstrated a2 activity”. Moreover, the “D2 to D1 ratios” value in test [1] lay within 1 to 3. The natriuretic activity result in test [5] is “inactive”.

With `CCCN(CCC)C1CCc2cc(Cl)c(O)cc2C1` (stereo not shown) [M, reference compound], the Kb in test [1] is 1630 nM; in test [2] (setting [6]) it was 4710 nM.

Take `NC1CCc2c(ccc(O)c2Cl)C1` (stereo not shown) [O, reference compound]: the Kb in test [1] is 11600 nM; in test [2] (setting [6]) it was > 10000 nM.

With `NC1CCc2cc(O)c(Cl)cc2C1` (stereo not shown) [N, reference compound], the results for the Kb in test [1] and in test [2] (setting [6]) were 4470 nM and 1970 nM, respectively.

The values above are taken from patent EP0209275B1, “Benz-trisubstituted 2-aminotetralins” (SMITHKLINE BECKMAN CORPORATION, priority 1985, dated 1987).
